From patent publication US8071654B2, “Inhibitors of thromboxane formation and action” (priority 2000, dated 2011)

What was measured:
human platelets = assay: PGH2-evoked platelet aggregation; type: cell-based; details: PGH2 100 ng; PBT-3 at various doses before PGH2
Description: (§1) Venous blood was obtained from healthy human subjects who had not taken NSAID's for at least two weeks. Blood was drawn into plastic syringes containing ACD. It was immediately centrifuged at 23° at 200×g for 15 min. The platelet rich plasma was transferred into fresh plastic tubes and centrifuged at 400×g for 5 min. The supernatant was discarded and the platelet sediment was resuspended in fresh medium containing NaCl (137 mM), KCl (1 mM), NaH2PO4, glucose (5.5 mM), HEPES (20 mM) and CaCl2 (1 mM) and allowed to stand at room temperature for 30 min. A platelet count was made, which determined the volume of platelet suspension needed to make up 350×10^6 cells for each measurement. The aliquot was diluted with medium to make 0.5 ml/assay/cuvette. […]
(§2) 0.5 ml of platelet suspension was added to siliconized glass tubes (four at a time) and heated with magnetic stirring to 37° for 1 min in a platelet aggregometer (PAP-4C). […] The response was recorded for the next 5 min. […] In experiments where the conversion of tritiated PGH2 was to be monitored, the procedure described above was repeated with tritiated PGH2 instead of unlabeled PGH2. After extraction of the sample as described above, the radiolabeled compounds were analyzed by TLC. Dose response curves for varying amounts of test compounds were generated and the data expressed as % inhibition of collagen-induced platelet aggregation. […]

TP receptor = target: T1, TP receptor (Homo sapiens, UniProt P21731); assay: platelet aggregation evoked by I-BOP; type: cell-based; details: I-BOP 2 ng/0.5 ml; read-out: IC50 for inhibition of aggregation evoked by I-BOP
T1 construct: endogenous in cells; host or cells: washed human platelets
T1 sequence (P21731 1-343): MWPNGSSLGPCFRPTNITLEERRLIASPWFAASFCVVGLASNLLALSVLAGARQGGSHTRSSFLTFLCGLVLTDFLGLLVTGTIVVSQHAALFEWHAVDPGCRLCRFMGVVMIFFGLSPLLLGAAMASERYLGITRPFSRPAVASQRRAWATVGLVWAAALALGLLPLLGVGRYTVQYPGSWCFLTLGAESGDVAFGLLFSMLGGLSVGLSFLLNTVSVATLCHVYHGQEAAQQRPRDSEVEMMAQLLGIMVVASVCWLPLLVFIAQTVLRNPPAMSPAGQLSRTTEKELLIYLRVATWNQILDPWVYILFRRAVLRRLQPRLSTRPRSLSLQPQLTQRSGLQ
Description: as §1, §2

platelet TP receptor = target: T2, platelet TP receptor (Homo sapiens, UniProt P21731); assay: binding of 125I-BOP to platelets
T2 construct: endogenous in cells; host or cells: washed human platelets
T2 sequence (P21731 1-343): T1 sequence (P21731 1-343)
Description: Washed platelets were prepared as described above, except that the platelet suspension was made up at a concentration of 10×10^6 cells/0.5 ml. The binding assay involved the addition of radioligand (30,000 cpm ^125I-BOP) to all tubes in triplicate, and either various doses of unlabeled I-BOP (10^−9-10^−7 M), PBT-3 (10^−9-10^−7 M) or U46619 (10^−9-10^−7 M) in 1 μl ethanol. Additional tubes containing excess unlabeled I-BOP were included to assess the extent of non-specific binding.

COX-2 = target: T3, COX-2 (Homo sapiens, UniProt P35354); assay: COX-2 activity, 14C-arachidonic acid conversion, TLC; type: biochemical; details: for COX-2 enzyme activity (% of control values, mean ± SD): n = 3
T3 construct: purchased Cayman Chemicals
T3 sequence (P35354 18-604): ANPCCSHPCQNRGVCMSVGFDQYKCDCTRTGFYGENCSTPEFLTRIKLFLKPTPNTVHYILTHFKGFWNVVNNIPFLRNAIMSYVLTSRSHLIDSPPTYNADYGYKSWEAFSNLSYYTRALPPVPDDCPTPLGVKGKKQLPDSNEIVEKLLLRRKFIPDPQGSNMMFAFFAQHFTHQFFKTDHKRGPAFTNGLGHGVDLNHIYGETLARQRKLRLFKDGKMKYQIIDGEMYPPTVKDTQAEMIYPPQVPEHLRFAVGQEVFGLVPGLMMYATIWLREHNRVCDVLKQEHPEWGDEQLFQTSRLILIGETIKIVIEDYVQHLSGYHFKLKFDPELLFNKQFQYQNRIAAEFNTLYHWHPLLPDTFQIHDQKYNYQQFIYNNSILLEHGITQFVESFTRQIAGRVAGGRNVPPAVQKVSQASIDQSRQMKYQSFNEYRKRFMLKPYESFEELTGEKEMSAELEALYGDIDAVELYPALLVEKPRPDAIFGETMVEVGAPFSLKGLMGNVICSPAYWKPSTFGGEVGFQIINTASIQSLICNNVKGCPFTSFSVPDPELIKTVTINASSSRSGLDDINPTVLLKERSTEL
Description: COX-1 and COX-2 enzyme preparations were purchased from Cayman Chemicals. Preliminary studies established that 40 U of COX-1 or COX-2 could convert about 70% of ^14C-arachidonic acid (spec. act. 55 mCi/mmol, Ontario Isotopes, Ontario, Canada; 100,000 cpm were diluted with 0.5 μg unlabeled arachidonic acid (Cayman Chemicals)/1 ml assay) into products in vitro. Different amounts of PBT-3 (10 μg and 20 μg) were added and the conversion of AA into products was assessed during a 10 min reaction in 1 ml phosphate buffer at 37°. After extraction, products were assessed by TLC (silica gel G, ethyl acetate/acetic acid, 99/1, v/v). After development, the TLC plates were scanned for radioactive products with a Berthold TLC radiochromatogram scanner and the radioactivity was quantified by scraping zones of silica gel, placing in scintillation vials, elution with 1 ml methanol and addition of scintillation medium. Radioactivity was determined by conventional counting in a beta scintillation counter.

IC50 (TP receptor): 60 nM
fold less active than I-BOP in competing with 125I-BOP binding (platelet TP receptor): about 16 fold
IC50 (platelet TP receptor; 10×10^6 cells/0.5 ml, read-out: IC50 for competition with 125I-BOP binding to platelets): 8.1 nM
COX-2 enzyme activity (% of control values, mean ± SD) (COX-2; PBT-3 3.00 μM): 109.2 ± 8.0^NS % of control
COX-2 enzyme activity (% of control values, mean ± SD) (COX-2; PBT-3 30.0 μM): 107.1 ± 14^NS % of control
SMILES: CCCCC/C=C\CC1CC1[C@@H](O)/C=C\C/C=C\CCCC(=O)OC (stereo partly drawn) [PBT-3, 10(S)-hydroxy-11,12-cyclopropyl-eicosa-5Z,8Z,14Z-trienoic acid methyl ester]
inhibition of PGH2-evoked aggregation (human platelets): inhibited the second wave of aggregation
inhibition of COX-2, in words (COX-2; relatively large amounts of PBT-3, about 3-4 log doses greater than required to inhibit the TP receptor): Neither COX-1, COX-2,12-LOX nor Plase A2 was inhibited
